Values quoted from earlier work in patent US20060193908A1, “Extended release formulations of poorly soluble antibiotics” (priority 2004, published 2006).

Conditions: USP 27/NF 22 listing

CC[C@H]1OC(=O)[C@H](C)[C@@H](O[C@H]2C[C@@](C)(OC)[C@@H](O)[C@H](C)O2)[C@H](C)[C@@H](O[C@@H]2O[C@H](C)C[C@H](N(C)C)[C@H]2O)[C@](C)(OC)C[C@@H](C)C(=O)[C@H](C)[C@@H](O)[C@]1(C)O [clarithromycin, Clarithromycin]
solubility in water (USP descriptive term): practically insoluble in water
